How the values were obtained:
BSA [1] = biological target: T1, BSA (Bos taurus, UniProt P02769); test: Far-UV CD secondary structure of BSA (CONTIN-LL deconvolution); type: physicochemical, bovine; details: 1.0 mg/mL BSA, 25 °C
T1 construct: purchased Millipore Sigma-Aldrich
Description: Circular dichroism (CD) is widely used to study the secondary structures of proteins, peptides and nucleic acids, because it requires a low concentration sample, is a nondestructive method, allows studying a wide range of variables (temperature, pH, etc.), and provides information on the effect of added ligands on protein folding and interactions. Far-UV (190–260 nm) CD spectroscopy was used to assess the IFN- α 2b and BSA secondary structure since the spectra are characteristic of different structural elements.
Circular dichroism (CD) spectra were collected in a 10 mm quartz cuvette and a Chirascan spectropolarimeter (Applied Photophysics, UK) at room temperature. All CD spectra were recorded in the far-UV range of 190 to 260 nm at scan rates of 50 nm/min, with 4 accumulations, and a response time of 3 s; CD spectra were collected. For each CD experiment, two distinct duplicates were acquired and combined. BSA was fixed at 1 mg/mL, solvent concentrations ranging from 0.1 to 200 mM were used, and the spectra were translated to MRE after being expressed in terms of molar ellipticity. Spectral deconvolution was carried out with DichroWeb using the CONTIN-LL deconvolution algorithm with the SMP180 reference set.

BSA [2] = biological target: T1, BSA; test: CD thermal unfolding (Tm) of BSA; type: physicochemical, bovine; details: 1.0 mg/ml BSA, 200 mM component aqueous solution
Description: The thermal stability assessed by far-UV CD is solely determined through the thermal decay of the alpha-helical structure.

T1 sequence (P02769 25-607): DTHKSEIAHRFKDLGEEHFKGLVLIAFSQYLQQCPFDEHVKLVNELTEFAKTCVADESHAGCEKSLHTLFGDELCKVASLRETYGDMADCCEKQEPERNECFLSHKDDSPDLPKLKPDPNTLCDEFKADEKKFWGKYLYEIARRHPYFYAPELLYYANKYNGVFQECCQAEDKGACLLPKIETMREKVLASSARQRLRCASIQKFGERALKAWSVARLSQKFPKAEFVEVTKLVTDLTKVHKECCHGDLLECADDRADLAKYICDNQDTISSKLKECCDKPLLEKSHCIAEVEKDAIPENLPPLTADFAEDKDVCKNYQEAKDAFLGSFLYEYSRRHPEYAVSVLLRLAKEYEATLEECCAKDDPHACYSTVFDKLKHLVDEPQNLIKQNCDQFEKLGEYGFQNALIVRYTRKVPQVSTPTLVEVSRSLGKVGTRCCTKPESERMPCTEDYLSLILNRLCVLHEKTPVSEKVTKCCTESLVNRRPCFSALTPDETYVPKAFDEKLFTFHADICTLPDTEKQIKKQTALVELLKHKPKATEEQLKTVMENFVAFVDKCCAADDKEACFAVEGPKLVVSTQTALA

SMILES: CCCCn1cc[n+](C)c1.O=S(=O)([O-])C(F)(F)F [[C4C1Im][CF3SO3], 1-butyl-3-methylimidazolium trifluoromethanesulfonate]
- Distorted Alpha Helix (BSA [1]; 0.1 mM component): 0.207
- Distorted Beta Sheet (BSA [1]; 0.1 mM component): 0.028
- Regular Alpha Helix (BSA [1]; 0.1 mM component): 0.403
- Regular Beta Sheet (BSA [1]; 0.1 mM component): 0.008
- Turns (BSA [1]; 0.1 mM component): 0.141
- Unordered (BSA [1]; 0.1 mM component): 0.212
- Distorted Alpha Helix (BSA [1]; 1 mM component): 0.215
- Distorted Beta Sheet (BSA [1]; 1 mM component): 0.023
- Regular Alpha Helix (BSA [1]; 1 mM component): 0.419
- Regular Beta Sheet (BSA [1]; 1 mM component): 0.000
- Turns (BSA [1]; 1 mM component): 0.135
- Unordered (BSA [1]; 1 mM component): 0.208
- Distorted Alpha Helix (BSA [1]; 5 mM component): 0.209
- Distorted Beta Sheet (BSA [1]; 5 mM component): 0.025
- Regular Alpha Helix (BSA [1]; 5 mM component): 0.403
- Regular Beta Sheet (BSA [1]; 5 mM component): 0.000
- Turns (BSA [1]; 5 mM component): 0.136
- Unordered (BSA [1]; 5 mM component): 0.227
- Distorted Alpha Helix (BSA [1]; 25 mM component): 0.180
- Distorted Beta Sheet (BSA [1]; 25 mM component): 0.031
- Regular Alpha Helix (BSA [1]; 25 mM component): 0.297
- Regular Beta Sheet (BSA [1]; 25 mM component): 0.020
- Turns (BSA [1]; 25 mM component): 0.128
- Unordered (BSA [1]; 25 mM component): 0.344
- Distorted Alpha Helix (BSA [1]; 55 mM component): 0.217
- Distorted Beta Sheet (BSA [1]; 55 mM component): 0.021
- Regular Alpha Helix (BSA [1]; 55 mM component): 0.390
- Regular Beta Sheet (BSA [1]; 55 mM component): 0.000
- Turns (BSA [1]; 55 mM component): 0.131
- Unordered (BSA [1]; 55 mM component): 0.240
- Distorted Alpha Helix (BSA [1]; 90 mM component): 0.202
- Distorted Beta Sheet (BSA [1]; 90 mM component): 0.026
- Regular Alpha Helix (BSA [1]; 90 mM component): 0.382
- Regular Beta Sheet (BSA [1]; 90 mM component): 0.007
- Turns (BSA [1]; 90 mM component): 0.136
- Unordered (BSA [1]; 90 mM component): 0.247
- Distorted Alpha Helix (BSA [1]; 120 mM component): 0.212
- Distorted Beta Sheet (BSA [1]; 120 mM component): 0.019
- Regular Alpha Helix (BSA [1]; 120 mM component): 0.378
- Regular Beta Sheet (BSA [1]; 120 mM component): 0.000
- Turns (BSA [1]; 120 mM component): 0.126
- Unordered (BSA [1]; 120 mM component): 0.266
- Distorted Alpha Helix (BSA [1]; 200 mM component): 0.223
- Distorted Beta Sheet (BSA [1]; 200 mM component): 0.024
- Regular Alpha Helix (BSA [1]; 200 mM component): 0.411
- Regular Beta Sheet (BSA [1]; 200 mM component): 0.000
- Turns (BSA [1]; 200 mM component): 0.136
- Unordered (BSA [1]; 200 mM component): 0.206
- Tm, Ellipticity 192 nm (BSA [2]): 75.050 °C
- Tm, Ellipticity 208 nm (BSA [2]): 77.089 °C
- Tm, Ellipticity 222 nm (BSA [2]): 74.833 °C

Reference: article PMC10931833, “Simultaneous Purification of Human Interferon Alpha-2b and Serum Albumin Using Bioprivileged Fluorinated Ionic Liquid-Based Aqueous Biphasic Systems” (International Journal of Molecular Sciences, 2024)
